Consider two molecules from patent publication US7335673B2, “2,3-Diphenylpropionic acid derivatives or their salts, medicines or cell adhesion inhibitors containing the same, and their usage” (Kaken Pharmaceutical Co., Ltd., priority 2001, dated 2008).

pIC50: −log10 of the molar value.

Assay [1] is described as follows: VLA-4/VCAM-1 cell adhesion inhibition test. The class given is cell-based. As to conditions: Homo sapiens; adhesion of BCECF-labeled HL-60 cells to VCAM-1-expressing CHO cells; read-out: 50% Inhibition Concentration.
Protocol: VCAM-1-expressing CHO cells were placed in a 96-well cuture plate in an amount of 7×10^3 cells/well, and were cultured in Ham's F-12 medium containing 10 vol % fetal calf serum (FCS) for 3 days until a confluent state was satisfied. HL-60 cells were re-flotated in Hanks' solution containing 0.4 wt % bovine serum albumin (BSA), and fluorescence-labeled by adding 5 μM of 2′,7′-bis(carboxyethyl)-5(6)-carboxy fluorescein pentaacetoxymethyl ester (BCECF-AM). […]
Thus-pretreated HL-60 cells were then stratified in an amount of 2×10^5 cells/well in each well containing the cultured VCAM-1-expressing CHO cells, and allowed to adhere at 37° C. for 5 minutes. […] The cells were washed, destroyed by adding PBS containing 1 vol % NP-40, and fluorescence intensity of the obtained supernatant was measured using a fluorescence measurement system (Millipore, Model cyto Fluor 2300).
Blank experiment was based on fluorescence intensity of PBS containing 1 vol % NP-40. Standard experiment was carried out using the fluorescence-labeled HL-60 suspensions having a concentration of 2×10^5, 10^5, 2×10^4 and 10^4 cells/mL, respectively, where the suspensions were added to PBS containing 1 vol % NP-40, the cells were destroyed, and the fluorescence intensities of the obtained supernatant were measured. […]
The next assay deals with LPAM-1/VCAM-1 adhesion. As to the kind of experiment: LPAM-1/VCAM-1 adhesion inhibition test.

On to `CC(C)CNc1cccc(C(Cc2ccc(NC(=O)c3c(Cl)cccc3Cl)cc2)C(=O)O)c1` (stereo not drawn) [Example 27], for which the pIC50 in assay [1] is 5.22.

With `COc1ccc(C(Cc2ccc(-c3c(OC)cccc3OC)cc2)C(=O)O)cc1N(CC(C)C)C(=O)C(C)(C)C` (stereo not drawn) [Example 106], the pIC50 in assay [1] is 5.39. For the same molecule, the “inhibition activity in LPAM-1/VCAM-1 adhesion inhibition test” value in the assay with LPAM-1/VCAM-1 adhesion was “showed the inhibition activity”.
